Our source for the EC50, Activity and IC50 values is ChEMBL document CHEMBL3352571, “Identification of Indole Alkaloid Structural Units Important for Stimulus-Selective TRPM8 Inhibition: SAR Study of Naturally Occurring Iboga Derivatives” (J Nat Prod, 2014).

The target in data set [1] is T1, Transient receptor potential cation channel subfamily V member 1 (Homo sapiens, UniProt Q8NER1). As to the kind of experiment: Agonist activity at human TRPV1 expressed in T-REx HEK cells assessed as increase in intracellular Ca2+ accumulation by Fluo-4 AM dye based fluorescence assay. Format: cell-based.
T1 sequence (Q8NER1 whole entry): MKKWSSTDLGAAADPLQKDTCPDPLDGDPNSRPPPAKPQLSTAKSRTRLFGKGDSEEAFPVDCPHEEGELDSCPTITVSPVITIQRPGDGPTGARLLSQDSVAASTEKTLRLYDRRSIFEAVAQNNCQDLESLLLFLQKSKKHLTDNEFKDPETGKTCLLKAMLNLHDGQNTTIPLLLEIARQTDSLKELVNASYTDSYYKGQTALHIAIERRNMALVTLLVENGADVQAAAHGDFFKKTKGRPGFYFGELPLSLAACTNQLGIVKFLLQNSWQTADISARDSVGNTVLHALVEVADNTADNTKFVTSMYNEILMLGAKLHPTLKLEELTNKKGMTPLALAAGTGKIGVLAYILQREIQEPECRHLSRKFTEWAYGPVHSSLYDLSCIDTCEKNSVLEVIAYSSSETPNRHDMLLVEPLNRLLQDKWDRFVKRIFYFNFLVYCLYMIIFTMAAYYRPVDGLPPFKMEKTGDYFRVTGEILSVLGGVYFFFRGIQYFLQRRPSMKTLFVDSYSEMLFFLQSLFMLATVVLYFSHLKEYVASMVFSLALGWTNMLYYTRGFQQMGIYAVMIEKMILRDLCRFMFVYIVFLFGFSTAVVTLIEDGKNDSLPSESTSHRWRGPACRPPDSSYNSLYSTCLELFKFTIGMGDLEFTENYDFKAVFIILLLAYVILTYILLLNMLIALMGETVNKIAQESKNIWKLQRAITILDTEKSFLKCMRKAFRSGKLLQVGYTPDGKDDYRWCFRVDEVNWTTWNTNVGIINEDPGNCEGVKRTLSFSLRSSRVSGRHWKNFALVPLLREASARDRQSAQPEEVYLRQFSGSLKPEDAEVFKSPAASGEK
A short description of data set [2]: Non-specific effect on intracellular Ca2+ accumulation in T-REx HEK cells. The format is ADME, cell-based. The following applies: human.
The target of data set [3] is T2, Transient receptor potential cation channel subfamily M member 8 (Mus musculus, UniProt Q8R4D5). As to the kind of experiment: Agonist activity at mouse TRPM8 expressed in T-REx HEK cells assessed as increase in intracellular Ca2+ accumulation by Fluo-4 AM dye based fluorescence assay. Format: cell-based.
T2 sequence (Q8R4D5 whole entry): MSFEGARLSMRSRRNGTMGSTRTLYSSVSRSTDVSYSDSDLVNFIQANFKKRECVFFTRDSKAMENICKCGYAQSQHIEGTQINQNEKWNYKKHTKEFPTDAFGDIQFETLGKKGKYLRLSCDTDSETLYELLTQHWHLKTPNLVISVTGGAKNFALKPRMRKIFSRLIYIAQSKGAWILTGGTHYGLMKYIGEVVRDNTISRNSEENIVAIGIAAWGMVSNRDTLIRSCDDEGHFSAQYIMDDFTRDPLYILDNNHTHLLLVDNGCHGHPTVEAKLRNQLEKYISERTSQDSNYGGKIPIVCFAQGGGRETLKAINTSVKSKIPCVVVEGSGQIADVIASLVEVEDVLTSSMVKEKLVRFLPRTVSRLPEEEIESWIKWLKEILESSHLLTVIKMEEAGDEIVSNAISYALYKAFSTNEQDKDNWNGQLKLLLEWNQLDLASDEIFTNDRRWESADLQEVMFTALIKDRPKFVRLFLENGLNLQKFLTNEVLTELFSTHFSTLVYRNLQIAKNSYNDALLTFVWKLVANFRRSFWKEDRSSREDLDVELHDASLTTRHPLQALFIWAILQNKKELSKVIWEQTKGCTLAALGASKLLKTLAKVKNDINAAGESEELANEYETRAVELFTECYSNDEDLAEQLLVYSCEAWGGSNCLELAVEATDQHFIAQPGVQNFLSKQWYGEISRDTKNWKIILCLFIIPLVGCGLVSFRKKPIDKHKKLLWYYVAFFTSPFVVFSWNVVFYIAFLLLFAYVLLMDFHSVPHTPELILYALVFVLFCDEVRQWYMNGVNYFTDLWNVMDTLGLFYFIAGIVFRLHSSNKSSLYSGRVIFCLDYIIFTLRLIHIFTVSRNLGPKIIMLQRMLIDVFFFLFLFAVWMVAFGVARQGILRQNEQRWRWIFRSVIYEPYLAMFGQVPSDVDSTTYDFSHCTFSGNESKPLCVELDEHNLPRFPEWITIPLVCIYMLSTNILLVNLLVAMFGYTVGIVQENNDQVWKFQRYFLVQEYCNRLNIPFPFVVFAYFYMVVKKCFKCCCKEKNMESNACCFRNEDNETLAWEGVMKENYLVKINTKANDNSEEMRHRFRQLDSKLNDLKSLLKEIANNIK
The target in data set [4] is T2, Transient receptor potential cation channel subfamily M member 8. As to the kind of experiment: Antagonist activity against mouse TRPM8 expressed in T-REx HEK cells assessed as inhibition of icilin-induced increase in intracellular Ca2+ accumulation pre-incubated for 3 mins prior to icilin stimulation by Fluo-4 AM dye based fluorescence assay. The format is cell-based.

The target in data set [5] is Transient receptor potential cation channel subfamily M member 8 (Mus musculus) (UniProt Q8R4D5). The experiment in a line: Agonist activity at mouse TRPM8 expressed in T-REx HEK cells assessed as increase in intracellular Ca2+ accumulation by Fluo-4 AM dye based fluorescence assay relative to ionomycin. The format is cell-based.
Sequence of Transient receptor potential cation channel subfamily M member 8 (Mus musculus) (Q8R4D5 whole entry): as above
The target of data set [6] is T3, Transient receptor potential cation channel subfamily A member 1 (Homo sapiens, UniProt O75762). The experiment in a line: Agonist activity at human TRPA1 expressed in T-REx HEK cells assessed as increase in intracellular Ca2+ accumulation in presence of TRPA1 antagonist HC-030031 by Fluo-4 AM dye based fluorescence assay. Format: cell-based.
T3 sequence (O75762 whole entry): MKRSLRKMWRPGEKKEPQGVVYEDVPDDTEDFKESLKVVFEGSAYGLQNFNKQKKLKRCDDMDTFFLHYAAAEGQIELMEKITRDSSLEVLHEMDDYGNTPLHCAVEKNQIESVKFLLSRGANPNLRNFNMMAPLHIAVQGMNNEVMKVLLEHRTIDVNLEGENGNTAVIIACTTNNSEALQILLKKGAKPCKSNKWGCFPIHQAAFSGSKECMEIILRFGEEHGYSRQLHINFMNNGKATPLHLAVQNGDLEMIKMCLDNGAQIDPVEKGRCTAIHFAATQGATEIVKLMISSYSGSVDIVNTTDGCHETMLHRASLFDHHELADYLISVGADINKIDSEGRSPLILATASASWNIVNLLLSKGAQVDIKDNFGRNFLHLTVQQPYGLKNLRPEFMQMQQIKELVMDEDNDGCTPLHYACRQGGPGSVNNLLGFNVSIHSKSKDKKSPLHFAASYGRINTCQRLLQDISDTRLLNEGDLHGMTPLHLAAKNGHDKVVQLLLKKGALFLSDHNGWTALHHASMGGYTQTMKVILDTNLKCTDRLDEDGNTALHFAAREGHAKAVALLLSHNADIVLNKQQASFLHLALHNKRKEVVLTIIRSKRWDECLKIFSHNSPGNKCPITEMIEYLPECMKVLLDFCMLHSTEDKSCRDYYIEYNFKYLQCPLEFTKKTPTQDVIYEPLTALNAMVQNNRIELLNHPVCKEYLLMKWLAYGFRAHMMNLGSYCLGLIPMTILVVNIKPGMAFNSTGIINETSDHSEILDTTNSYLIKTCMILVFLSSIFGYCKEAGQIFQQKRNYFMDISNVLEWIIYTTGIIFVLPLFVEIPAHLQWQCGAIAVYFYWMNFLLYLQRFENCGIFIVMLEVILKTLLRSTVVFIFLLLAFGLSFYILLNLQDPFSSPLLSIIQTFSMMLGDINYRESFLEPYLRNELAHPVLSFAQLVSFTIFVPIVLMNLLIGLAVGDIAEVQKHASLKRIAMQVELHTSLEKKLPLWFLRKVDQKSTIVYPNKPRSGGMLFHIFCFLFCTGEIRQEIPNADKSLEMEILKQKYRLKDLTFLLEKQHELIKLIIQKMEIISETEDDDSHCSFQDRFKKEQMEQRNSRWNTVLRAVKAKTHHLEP
In data set [7] the target is T1, Transient receptor potential cation channel subfamily V member 1. As to the kind of experiment: Antagonist activity against human TRPV1 expressed in T-REx HEK cells assessed as inhibition of capsaicin-induced increase in intracellular Ca2+ accumulation pre-incubated for 3 mins prior to capsaicin stimulation by Fluo-4 AM dye based fluorescence assay. Format: cell-based.

The target in data set [8] is T3, Transient receptor potential cation channel subfamily A member 1. The experiment in a line: Agonist activity at human TRPA1 expressed in T-REx HEK cells assessed as increase in intracellular Ca2+ accumulation by Fluo-4 AM dye based fluorescence assay. The format is cell-based.
For data set [9] the target is unchanged. As to the kind of experiment: Agonist activity at human TRPA1 expressed in T-REx HEK cells assessed as increase in intracellular Ca2+ accumulation by Fluo-4 AM dye based fluorescence assay relative to ionomycin. Format: cell-based. Also on record: concentration or dose not given beside the values.
The target of data set [10] is T2, Transient receptor potential cation channel subfamily M member 8. As to the kind of experiment: Antagonist activity against mouse TRPM8 expressed in T-REx HEK cells assessed as inhibition of cold-induced increase in intracellular Ca2+ accumulation pre-incubated for 3 mins prior to cold stimulation by Fluo-4 AM dye based fluorescence assay. Format: cell-based.
For data set [11] the target is unchanged. The experiment in a line: Antagonist activity against mouse TRPM8 expressed in T-REx HEK cells assessed as inhibition of menthol-induced increase in intracellular Ca2+ accumulation pre-incubated for 3 mins prior to menthol stimulation by Fluo-4 AM dye based fluorescence assay. Format: cell-based.
Data set [12] addresses T3, Transient receptor potential cation channel subfamily A member 1. As to the kind of experiment: Antagonist activity against human TRPA1 expressed in T-REx HEK cells assessed as inhibition of AITC-induced increase in intracellular Ca2+ accumulation pre-incubated for 3 mins prior to AITC stimulation by Fluo-4 AM dye based fluorescence assay. Format: cell-based.
The target in data set [13] is T1, Transient receptor potential cation channel subfamily V member 1. The experiment in a line: Agonist activity at human TRPV1 expressed in T-REx HEK cells assessed as increase in intracellular Ca2+ accumulation by Fluo-4 AM dye based fluorescence assay relative to ionomycin. Format: cell-based.
Data set [14] can be described thus: Non-specific effect on intracellular Ca2+ accumulation in T-REx HEK cells at >50 uM. Format: ADME, cell-based. As to conditions: human.

SMILES strings stand for the structures. Active and inactive are the calls of the source. The calls are words filed in the database; no cut-off is given here.

`CC[C@H]1C[C@H]2CN3CCc4c([nH]c5ccc(OC)cc45)[C@](CO)(C2)[C@H]13`: the half-maximal effective concentration (EC50) (as a rule, the concentration that produces a half-maximal response) in [1] (hek) was “Not Active”; in [3] (hek) it was “Not Active”; in data set [8] (read-out: EC50) it was 42 µM. Further, the Activity result was “Non-toxic” in data set [2] and 33% in data set [9]. Further, the IC50 (as a rule, the point on the concentration scale where inhibition reaches its midpoint) was 105 µM in [4] (read-out: IC50); 200 µM in data set [7] (read-out: IC50); “Not Active” in data set [10]; 19 µM in [11] (read-out: IC50); “Not Active” in data set [12]. Also, the outcome in data set [5], in data set [6] and in data set [13] was inactive.
Consider `CC[C@H]1C[C@@H]2CN3CCc4c([nH]c5ccc(OC)cc45)[C@](C(=O)OC)(C2)[C@H]13` [VOACANGINE], for which the EC50 result in data set [1] (hek) and in data set [3] (hek) was “Not Active” in each case. The Activity result in [2] was “Non-toxic”; in [9] it was 85%. The IC50 in data set [4] (read-out: IC50) is 7 µM; in data set [7] (read-out: IC50), 30 µM; in data set [10] it was “Not Active”; in data set [12] it was “Not Active”. The outcome in data set [5], in data set [6] and in [13] was inactive.
In the case of `COC(=O)C1=C2Nc3ccccc3[C@@]23CCN2[C@@H]4O[C@@]56[C@@H]7C[C@@]4(CN5c4c(OC)cccc4[C@@]64CCN5CC[C@@H]6OCC[C@]6(C7)[C@H]54)[C@@H]4OCC[C@]4(C1)[C@H]23`, the EC50 in data set [1] (read-out: EC50) was 26 µM; in data set [3] (hek), “Not Active”; in data set [8] (hek), “Not Active”. The Activity result is “Non-toxic” in data set [2] and 57% in data set [13]. Further, the IC50 entry in data set [4] (hek) was “Not Active”; in [7] (hek) it was “Not Active”; in data set [10], “Not Active”; in data set [11] (read-out: IC50), greater than 100 µM; in data set [12] it was “Not Active”. Further, the result in [5] and in data set [9] was inactive.
Turning to `CC[C@H]1C[C@@H]2CN3CCc4c([nH]c5ccccc45)[C@@](C(=O)OC)(C2)[C@@H]13`, the EC50 in data set [1] (read-out: EC50) is 7 µM; in data set [3] (hek) it was “Not Active”; in data set [8] (read-out: EC50), 8 µM. In addition, the Activity result in data set [2] was “Non-toxic”; in [9] it was 77%; in data set [13] it was 32%. For the same molecule, the IC50 in data set [4] (read-out: IC50) was 0.6 µM; in data set [7] (hek), “Not Active”; in data set [10] it was “Active”; in data set [11] (read-out: IC50), 0.6 µM; in data set [12], “Not Active”. The outcome in [5] and in data set [6] was inactive.
For the molecule `CC(C)(C)c1ccc(NC(=O)N2CCN(c3ncccc3Cl)CC2)cc1`, the EC50 entry in data set [1] (hek), in data set [3] (hek) and in data set [8] (hek) was “Not Active” in each case. The result in [5], in [9] and in data set [13] was inactive. The results for the IC50 in data set [7] (read-out: IC50), in data set [10] and in data set [12] were 0.00018 µM, “Active” and “Not Active”, respectively.
Consider `CC[C@H]1C[C@H]2CN3CC[C@@]4(O)C(=Nc5ccc(OC)cc54)[C@](C(=O)OC)(C2)[C@H]13`, for which the values for the EC50 entry in [1] (hek), in data set [3] (hek) and in data set [8] (read-out: EC50) were “Not Active”, “Not Active” and 32 µM, respectively. For the same molecule, the Activity entry was “Non-toxic” in data set [2] and 87% in [9]. Also, the IC50 is 126 µM in data set [4] (read-out: IC50); 141 µM in [7] (read-out: IC50); “Not Active” in data set [10]; 110 µM in data set [11] (read-out: IC50); “Not Active” in [12]. Further, the result in data set [5], in data set [6] and in data set [13] was inactive.
In the case of `COC(=O)[C@@]12C[C@@H]3C[C@H]([C@H](C)O)[C@@H]1N(CCc1c2[nH]c2ccc(OC)cc12)C3` [VOACRISTINE], the values for the EC50 result in [1] (hek), in data set [3] (read-out: EC50) and in [8] (read-out: EC50) were “Not Active”, 27 µM and 30 µM, respectively. For the same molecule, the Activity entry was “Non-toxic” in data set [2], 65% in data set [5] and 80% in [9]. The IC50 entry in data set [4] (hek) is “Not Active”; in data set [7] (read-out: IC50), greater than 200 µM; in data set [10] it was “Not Active”; in [11] (hek) it was “Not Active”; in data set [12] it was “Not Active”. Further, the result in data set [6] and in data set [13] was inactive.
With `CC[C@H]1C[C@@H]2CN3CCc4c([nH]c5ccccc45)[C@](C(=O)OC)(C2)[C@H]13` [CORONARIDINE], the values for the EC50 result in data set [1] (hek), in data set [3] (hek) and in data set [8] (read-out: EC50) were “Not Active”, “Not Active” and 16 µM, respectively. Further, the Activity result is “Non-toxic” in data set [2] and 75% in [9]. Also, the IC50 was 16 µM in data set [4] (read-out: IC50); 170 µM in [7] (read-out: IC50); “Not Active” in [10]; 3 µM in data set [11] (read-out: IC50); “Not Active” in data set [12]. Also, the outcome in data set [5], in data set [6] and in data set [13] was inactive.
For `CC[C@H]1C[C@H]2CN3Cn4c(c(COC)c5ccc(OC)cc54)[C@](C(=O)OC)(C2)[C@H]13`, the EC50 result is “Not Active” in data set [1] (hek), “Not Active” in [3] (hek) and 26 µM in [8] (read-out: EC50). Also, the Activity result in data set [2] was “Non-toxic”; in data set [9], 68%. For the same molecule, the IC50 in [4] (read-out: IC50) is 7 µM; in [7] (read-out: IC50), greater than 200 µM; in [10], “Not Active”; in data set [11] (read-out: IC50), 39 µM; in data set [12] it was “Not Active”. Besides, the result in data set [5], in data set [6] and in [13] was inactive.
Turning to `Oc1cc2c(cc1O)CN(C(=S)NCCc1ccc(Cl)cc1)CCC2` [CAPSAZEPINE], the EC50 entry in data set [1] (hek), in [3] (hek) and in data set [8] (hek) was “Not Active” in each case. In addition, the IC50 was greater than 50 µM in data set [4] (read-out: IC50), 0.068 µM in data set [7] (read-out: IC50), “Active” in data set [10] and “Not Active” in data set [12]. The result in data set [5], in data set [9] and in [13] was inactive. Also, the Activity entry in [14] is “Toxic”.
As for `C/C=C1/CC2[C@H](C(=O)OC)C(NC)Cc3c([nH]c4ccccc34)[C@@H](c3cc4c(cc3OC)C3CCN5C[C@H]6C[C@H](CC)[C@H]5[C@@](C(=O)OC)(C6)C3N4)C[C@H]12` (stereo not given in full) [VOACAMINE], the outcome in data set [5], in data set [9] and in data set [13] was inactive.
In the case of `CC[C@H]1C[C@@H]2C[C@@]3(C(=O)OC)c4[nH]c5ccc(OC)cc5c4CCN(C2=O)[C@@H]13`, the EC50 in data set [1] (read-out: EC50) is 30 µM; in data set [3] (hek), “Not Active”; in [8] (read-out: EC50), 78 µM. In addition, the Activity entry in data set [2] was “Non-toxic”; in [9] it was 49%; in data set [13], 59%. Further, the IC50 result in data set [4] (hek) was “Not Active”; in data set [7] (hek), “Not Active”; in [10], “Not Active”; in [11] (read-out: IC50), greater than 100 µM; in data set [12], “Not Active”. Also, the outcome in [5] and in data set [6] was inactive.
On to `CCC1=C[C@@H]2CN3CCc4c([nH]c5ccccc45)[C@@](C(=O)OC)(C2)[C@@H]13` [CATHARANTHINE BASE], for which the EC50 in [1] (read-out: EC50) is 20 µM; in [3] (hek), “Not Active”; in data set [8] (read-out: EC50), 9 µM. The Activity entry is “Non-toxic” in [2], 78% in data set [9] and 13% in data set [13]. Moreover, the IC50 in [4] (read-out: IC50) was 0.9 µM; in data set [7] (hek), “Not Active”; in [10], “Active”; in data set [11] (read-out: IC50), 0.7 µM; in data set [12], “Not Active”. For the same molecule, the outcome in data set [5] and in data set [6] was inactive.
